Columns and labels:
[1] = test system: mice fattened on a high fat/high sucrose diet (HF/HS); assay: Hepatic metabolism: transaminases and alkaline phosphatase (liver toxicity); format: in vivo; settings: TZD and AV102 groups; considered very moderate, does not appear to reflect liver toxicity
[2] = test system: ME, FAS, ACC (fatty acid synthesis); assay: Liver mRNA expression, real-time Q-RT-PCR: ME, FAS, ACC; format: in vivo, mice; settings: TZD; AV102 (0.25%)
Procedure: (§1) In the liver, the mRNA expressions of 8 genes were determined in 5 mice of each group using real-time Q-RT-PCR analysis.

[3] = test system: ACO (target PPARα); assay: Liver mRNA expression, real-time Q-RT-PCR: ACO; format: in vivo; settings: TZD; AV102 (0.25%); 5 mice per group
Procedure: as §1

[4] = test system: CYP7A1; assay: Liver mRNA expression, real-time Q-RT-PCR: CYP7A1; format: in vivo, mice; settings: TZD; AV102 (0.25%)
Procedure: as §1

[5] = test system: mice fattened on a high fat/high sucrose diet (HF/HS); assay: Blood parameters: plasma lipids (total cholesterol, LDL, HDL, TG, FFA); format: in vivo; settings: TZD 10 mg/kg/day; for HDL / Total cholesterol: (3 W***)
Procedure: (§2) We used adult mice (aged 6 weeks) of masculine gender fattened on a high fat/high sucrose diet (HF/HS). Feeding with the HF/HS diet began on mice aged 6 weeks and continued throughout the period of the study. The study was conducted along 2 axes: • prevention: the product was administered as soon as feeding began with the HF/HS diet; • management (curative): the product was administered 12 weeks after the start of the HF/HS diet. Total treatment time (preventive and curative): 23 weeks.
(§3) Each experimental group comprised 10 mice.
(§4) Subsequently the following were analysed: lipoprotein profile (by size exclusion chromatography); apolipoportein A1; lipid composition of the liver (liver triglycerides, cholesterol and free fatty acids); histological analysis of the liver and adipose tissue; staining of accumulated lipids in the liver.
(§5) The different cholesterol blood levels and different fractions were analysed using a HPLC method.

[6] = test system: mice fattened on a high fat/high sucrose diet (HF/HS); assay: Food intake and weight gain of mice on HF/HS diet; format: in vivo; settings: curative; TZD 10 mg/kg/dy
Procedure: as §2, §3

[7] = test system: PEPCK (target PPARγ); assay: Liver mRNA expression, real-time Q-RT-PCR: PEPCK; format: in vivo, mice; settings: TZD; AV102 (0.25%)
Procedure: as §1

[8] = test system: PGC-1 (mitochondria biogenesis); assay: Muscle/BAT mRNA expression: PGC-1; format: in vivo, mice; settings: TZD, AV102 (0.25%)
Procedure: In the brown adipose tissue (BAT) and in the muscles, the mRNA expression of 3 genes was determined in 5 mice of each group by real-time Q-RTR-PCR analysis.

[9] = test system: mice fattened on a high fat/high sucrose diet (HF/HS); assay: Blood glucose and insulin analysis; format: in vivo; settings: TZD 10 mg/kg/day
Procedure: as §2, §3, §4

[10] = test system: mice fattened on a high fat/high sucrose diet (HF/HS); assay: Intra Peritoneal Insulin Sensitive Test (IPIST); format: in vivo; settings: preventive; TZD 10 mg/kg/day; (3 W***)
From the text: Diabetics suffer from an increase in insulin resistance which leads to hyperglycaemia.

[11] = test system: mice fattened on a high fat/high sucrose diet (HF/HS); assay: Plasma lipoprotein profile (size exclusion chromatography); format: in vivo; settings: TZD
Procedure: as §2, §3, §4, §5

`CN(CCOc1ccc(CC2SC(=O)NC2=O)cc1)c1ccccn1` (stereo not drawn) [TZD, Rosiglitazone] was tested, and the “Plasma ALP” value [1] was “increase”, the “ME, FAS, ACC (fatty acid synthesis) mRNA in the liver” value [2] was “↑↑” and the “ACO (target PPARα) mRNA in the liver” value [3] was “↑”. For the same molecule, the “CYP7A1 (conversion oxysterol into biliary acids) mRNA in the liver” value [4] was “↑↑”, the LDL ([5]; curative) was “reduction” and the “TG (Triglycerides)” value ([5]; curative) was “No change”. For the same molecule, the HDL ([5]; curative) was “reduction”, the Total cholesterol ([5]; curative) was “reduction” and the LDL ([5]; preventive) was “downward trend”. For the same molecule, the “TG (Triglycerides)” value ([5]; preventive) was “significantly reduced”, the HDL ([5]; preventive) was “significant reduction” and the Total cholesterol ([5]; preventive) was “significant reduction”. The Mouse wt. [6] was “did not cause the overweight mice to lose weight”, the “PEPCK (target PPARγ) mRNA in the liver” value [7] was “↑” and the “PGC-1 (mitochondria biogenesis) mRNA in muscle/BAT” value [8] was “↑ (muscle)”. For the same molecule, the “GLUCOSE (blood)” value ([9]; curative, (3 W**)) was “dropped considerably and ↓↓”, the “GLUCOSE (blood)” value ([9]; preventive) was “↓” and the “INSULIN (blood)” value ([9]; preventive) was “↓”. The “IPIST (insulin sensitivity test)” value [10] was “↓↓”, the “Fractions of HDL and VLDL cholesterol (lipoprotein profiles)” value ([11]; curative, after 3 weeks' treatment) was “reduction” and the “HDL, LDL and VLDL cholesterol fractions (plasma lipoprotein profiles)” value ([11]; preventive, weeks 8 and 15) was “reduction”.

From patent publication US7872043B2, “Use of furan alkyls for a cellulite cosmetic treatment” (Laboratories Expanscience, priority 2004, dated 2011)
